Assay [1] is described as follows: blockers of VCAM1 upregulation by TNFa – imaging, TNFa stimulus, retest and dose response, confirmation (AID 1013).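 On cell count: compound on cells 1 h before TNFa then 24 h more.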 The following applies: TNFa-stimulated cells, VCAM1 expression imaging; cell count; at 10 µM; stronger effect = lower value.
Assay [2] relates to TNFa-stimulated cells, VCAM1 expression imaging. The description is as above.

Structures are written as SMILES. Activity calls are given as the source filed them. How the calls were made is not given here. Some results are limits rather than exact numbers.

A word on the IC50: it is the midpoint of a concentration-inhibition curve.

In assay [1], `O=C1c2cccc3c([N+](=O)[O-])ccc(c23)C(=O)N1c1ccc(Cl)cn1` showed a cell count of 103%. In addition, the IC50 in assay [2] was > 10 µM (inactive).
For `CC1=CC(C)(C)N(S(=O)(=O)c2ccc(C)cc2)c2cc(C)ccc21` the same measures were 113% and > 10 µM (inactive).
For `O=C(N/N=C/C(Br)=C/c1ccccc1)c1n[nH]c2c1CCC2`, in that order: 28.6% and 0.0993 µM.

For the origin of these results see PubChem BioAssay AID1013 (Columbia University Molecular Screening Center, 2008).
